Experimental data published in ChEMBL document CHEMBL5523754, “Discovery of Biphenyl Derivatives to Target Hsp70-Bim Protein-Protein Interaction in Chronic Myeloid Leukemia by Scaffold Hopping Strategy” (J Med Chem, 2024).
≈ marks a conversion by molar mass, not a printed value. Calls of active or inactive are those of the source. The calls are words filed in the database; no cut-off is given here.

What was measured:
[1] = organism: Homo sapiens; assay: Effect on human N-terminal 6xHis tagged HSP70 basal ATPase activity expressed in Escherichia coli BL21 (DE3) at 0 to 50 uM preincubated for 30 mins followed by ATP addition and measured after 10 mins by luciferin based luminescence analysis; conditions: dose 0-50 µM, time 40.0 min
[2] = organism: Homo sapiens; assay: Inhibition of BimBH3 peptide stimulated human N-terminal 6xHis tagged Hsp70 ATPase activity expressed in Escherichia coli BL21 (DE3) at 0 to 50 uM preincubated for 30 mins followed by ATP addition and measured after 10 mins by luciferin based luminescence analysis; conditions: dose 0-50 µM, time 40.0 min
[3] = Inhibition of N-terminal 6xHis tagged human Hsp70 expressed in Escherichia coli BL21 (DE3)/FAM-labeled BimBH3 peptide (unknown origin) protein protein interaction incubated for 10 mins by fluorescence polarization assay
[4] = tested on: BV-173; assay: Induction of apoptosis in human BV-173 cells incubated for 48 hrs by Annexin V-FITC staining based flow cytometry analysis; type: functional, cell-based; conditions: BV-173, 48 h
[5] = tested on: K562; assay: Inhibition of HSP70/Bim protein-protein interaction in human K562 cells assessed as reduction in eIF4E protein expression incubated for 12 hrs by Western blot analysis; type: cell-based
[6] = tested on: K562; assay: Induction of apoptosis in human K562 cells incubated for 48 hrs by Annexin V-FITC staining based flow cytometry analysis; type: functional, cell-based; conditions: K562, 48 h
[7] = tested on: BaF3; assay: Induction of apoptosis in mouse BaF3 cells assessed as apoptotic rate at 15 uM incubated for 48 hrs by Annexin V-FITC staining based flow cytometry analysis relative to control; type: toxicity, cell-based; conditions: baf3, 48 h
[8] = tested on: K562; assay: Inhibition of HSP70/Bim protein-protein interaction in human K562 cells assessed as reduction in Raf-1 protein expression incubated for 12 hrs by Western blot analysis; type: cell-based
[9] = Induction of apoptosis in human Imatinib-resistant K562-R3 cells incubated for 48 hrs by Annexin V-FITC staining based flow cytometry analysis; type: functional; conditions: Imatinib-resistant K562-R3 cell
[10] = tested on: HEK293; assay: Induction of apoptosis in HEK293 cells assessed as apoptotic rate at 15 uM incubated for 48 hrs by Annexin V-FITC staining based flow cytometry analysis relative to control; type: toxicity, cell-based; conditions: human, hek293, 48 h
[11] = Aqueous solubility of compound at pH 7 at 10 mg incubated for 24 hrs under shaking condition by HPLC method; type: physicochemical; conditions: aqueous medium
[12] = tested on: K562; assay: Inhibition of HSP70/Bag3 protein-protein interaction in human K562 cells at 3 uM incubated for 12 hrs by coimmunoprecipitation analysis; type: cell-based
[13] = Binding affinity to N-terminal 6xHis tagged human HSP70 expressed in Escherichia coli BL21 (DE3) assessed as dissociation constant by ITC analysis
[14] = tested on: K562; assay: Inhibition of HSP70/Bim protein-protein interaction in human K562 cells assessed as reduction in AKT protein expression incubated for 12 hrs by Western blot analysis; type: cell-based
[15] = tested on: K562; assay: Inhibition of HSP70/Bim protein-protein interaction in human K562 cells at 5 uM incubated for 12 hrs by coimmunoprecipitation analysis; type: cell-based
[16] = Induction of apoptosis in HEK293 cells incubated for 48 hrs by Annexin V-FITC staining based flow cytometry analysis; type: toxicity, cell-based; conditions: human
[17] = Induction of apoptosis in mouse BaF3 cells incubated for 48 hrs by Annexin V-FITC staining based flow cytometry analysis; type: toxicity, cell-based
[18] = organism: Homo sapiens; assay: Inhibition of human N-terminal 6xHis tagged HSP70 basal ATPase activity expressed in Escherichia coli BL21 (DE3) at 0 to 50 uM preincubated for 30 mins followed by ATP addition and measured after 10 mins by luciferin based luminescence analysis; conditions: dose 0-50 µM, time 40.0 min
[19] = tested on: K562; assay: Inhibition of HSP70/Bag3 protein-protein interaction in human K562 cells at 5 uM incubated for 12 hrs by coimmunoprecipitation analysis; type: cell-based
[20] = (§1) Inhibition of BimBH3 peptide stimulated human N-terminal 6xHis tagged Hsp70 ATPase activity expressed in Escherichia coli BL21 (DE3) preincubated for 30 mins followed by ATP addition and measured after 10 mins by luciferin based luminescence analysis
[21] = organism: Homo sapiens; assay: as §1; conditions: time 40.0 min
[22] = tested on: K562; assay: Induction of apoptosis in Hsp70 shRNA-transfected human K562 cells assessed as increase in PARP cleavage at 2 uM incubated for 24 hrs by Western blot analysis; type: functional, cell-based
[23] = tested on: K562; assay: Inhibition of HSP70/Bim protein-protein interaction in human K562 cells assessed as reduction in eIF4E protein expression at 2 uM incubated for 12 hrs by Western blot analysis; type: cell-based
[24] = tested on: K562; assay: Inhibition of HSP70/Bim protein-protein interaction in human K562 cells incubated for 12 hrs by coimmunoprecipitation analysis; type: cell-based; conditions: dose 0.5-3 µM
[25] = tested on: K562; assay: Induction of apoptosis in Bim shRNA-transfected human K562 cells assessed as increase in PARP cleavage at 2 uM incubated for 24 hrs by Western blot analysis; type: functional, cell-based
[26] = tested on: K562; assay: Inhibition of HSP70/Bim protein-protein interaction in human K562 cells assessed as reduction in AKT protein expression at 2 uM incubated for 12 hrs by Western blot analysis; type: cell-based
[27] = tested on: K562; assay: Inhibition of HSP70/Bag3 protein-protein interaction in human K562 cells at 0.5 to 3 uM incubated for 12 hrs by coimmunoprecipitation analysis; type: cell-based; conditions: dose 0.5-3 µM
[28] = tested on: K562; assay: Inhibition of HSP70/Bim protein-protein interaction in human K562 cells assessed as reduction in Raf-1 protein expression at 2 uM incubated for 12 hrs by Western blot analysis; type: cell-based

| SMILES | Activity [1] | inhibition [2] | IC50 [3] [nM] | further results |
| --- | --- | --- | --- | --- |
| CN(C)CCn1cnc2ccc(NC(=O)C3CCCCC3)cc21 | inactive | Active | > 10000 |  |
| CN(C)CCNc1cc(-c2ccc(Oc3cc(C(C)(C)C)cc(C(C)(C)C)c3)cc2)cc(O)c1C#N | inactive | Active | 880 |  |
| O=C(Nc1ccc2ncn(CCN3CCOCC3)c2c1)NC1CCCCC1 | inactive | Active | > 10000 |  |
| CN(C)CCn1cnc2ccc(NC(=O)NC3CCCCC3)cc21 | inactive | Active | > 10000 |  |
| CN(C)CCNc1cc(-c2ccc(OC3CCCCC3)cc2)cc(O)c1C#N | inactive | Active | 930 |  |
| Cc1cc(C)cc(Oc2ccc(-c3cc(O)c(C#N)c(NCCN(C)C)c3)cc2)c1 | inactive | Active | 620 |  |
| CN(C)CCn1c(=O)oc2ccc(NC(=O)NC3CCCCC3)cc21 | inactive | Active | > 10000 |  |
| CN(C)CCn1ccc2ccc(NC(=O)NC3CCCCC3)cc21 | inactive | Active | > 10000 |  |
| Cc1cc(Oc2ccc(-c3cc(O)c(C#N)c(NCCN4CCCCC4)c3)cc2)cc(C)c1Cl | inactive |  | 70 | EC50 [4]: 430 nM; IC50 [20]: 4890 nM; inhibition [21]: Dose-Dependent Effect; Activity [22]: inactive; inhibition [23]: Active; inhibition [24]: Dose-Dependent Effect; EC50 [6]: 880 nM; Activity [25]: inactive; Activity [7]: < 10%; inhibition [26]: Active; EC50 [9]: 190 nM; inhibition [27]: inactive; inhibition [28]: Active; Activity [10]: < 10%; solubility thermodynamic at 24 h [11]: 29.4 µg/mL (≈ 61.8 µM); Kd [13]: 123 nM |
| Cc1cc(Oc2ccc(-c3cc(O)c(C#N)c(NCCN(C)C)c3)cc2)cc(C)c1N | inactive | Active | 410 |  |
| CN(C)CCNc1cc(-c2ccc(OC3CCCCC3)cc2)cc(CC(=O)O)c1C#N | inactive | Active | 3600 |  |
| CN(C)CCNc1cc(-c2ccc(OC34CC5CC(CC(C5)C3)C4)cc2)cc(O)c1C#N | inactive | Active | 8800 |  |
| Cc1cc(-c2ccc(OC3CCCCC3)cc2)cc(NCCN(C)C)c1C#N | inactive | Active | > 10000 |  |

Second part, led by results:

| Activity [1] | inhibition [2] | IC50 [3] [nM] | SMILES | further results |
| --- | --- | --- | --- | --- |
| inactive | Active | 280 | CCN(CC)CCNc1cc(-c2ccc(Oc3cc(C)c(Cl)c(C)c3)cc2)cc(O)c1C#N |  |
| inactive | Active | 2130 | CN(C)CCNc1cc(-c2ccc(Oc3ccccc3)cc2)cc(O)c1C#N |  |
| inactive | Active | 8200 | CN(C)CCNc1cc(-c2ccc(OC3CCCCC3)cc2)cc(F)c1C#N |  |
| inactive | Active | 330 | Cc1cc(Oc2ccc(-c3cc(O)c(C#N)c(NCCN(C)C)c3)cc2)cc(C)c1Cl |  |
| inactive | Active | > 10000 | CCN(CC)CCn1cnc2ccc(NC(=O)NC3CCCCC3)cc21 |  |
| inactive | Active | 90 | Cc1cc(Oc2ccc(-c3cc(O)c(C#N)c(NCCN4CCCC4)c3)cc2)cc(C)c1Cl |  |
| inactive | Active | 820 | Cc1cccc(Oc2ccc(-c3cc(O)c(C#N)c(NCCN(C)C)c3)cc2)c1 |  |
| inactive | Active | > 10000 | O=C(Nc1ccc2ccn(CCN3CCOCC3)c2c1)NC1CCCCC1 |  |
| inactive | Active | 800 | CCN(CC)CCNC1=C(C#N)C(=O)c2cccc3c(SC4CCCCC4)ccc1c23 | EC50 [4]: 660 nM; inhibition [5]: Active; EC50 [6]: 1200 nM; Activity [7]: < 10%; inhibition [8]: Active; EC50 [9]: 370 nM; Activity [10]: < 10%; solubility thermodynamic at 24 h [11]: 7.19 µg/mL (≈ 16.6 µM); inhibition [12]: inactive; Kd [13]: 688 nM; inhibition [14]: Active |
|  | Active |  | N#Cc1ccc(COC[C@H]2O[C@@H](n3c(NCc4ccc(Cl)c(Cl)c4)nc4c(N)ncnc43)[C@H](O)[C@@H]2O)cc1 | EC50 [4]: 5640 nM; inhibition [15]: inactive; EC50 at 48 h [16]: 6460 nM; EC50 at 48 h [17]: 7730 nM; EC50 [6]: 7050 nM; inhibition [18]: Active; inhibition [19]: inactive; EC50 [9]: 8680 nM |
| inactive | Active | > 10000 | O=C(Nc1ccc2ccn(CCN3CCOCC3)c2c1)C1CCCCC1 |  |
